Experimental data published in patent US20110054033A1, “METHODS OF USING ABSCISIC ACID FOR AMELIORATING HYPERTENSION AND VASCULAR INFLAMMATION” (Virginia Tech Intellectual Properties, Inc., priority 2009, published 2011).

Assays:
ApoE-deficient mice [1] = assay: Blood pressure by non-invasive tail-cuff system; assay type: in vivo; details: for Systolic blood pressure vs control-fed mice: P<0.05
Experimental: FIG. 3 is a graph showing that ABA decreases systolic blood pressure in ApoE (−/−) mice. ApoE −/− mice were fed high fat diets created with (solid line) or without (dashed line) 100 mg/kg diet racemic abscisic acid (ABA). Systolic blood pressure was assessed on days 0, 28, 56, and 72 of dietary treatment. Data were analyzed as a completely randomized design.
Five-week old ApoE −/− mice (n=40) were housed at the animal facilities at Virginia Polytechnic Institute and State University in a room maintained at 75° F., with a 12:12 h light-dark cycle starting from 6:00 AM. All experimental procedures were approved by the Institutional Animal Care and Use Committee of Virginia Polytechnic Institute and State University and met or exceeded requirements of the Public Health Service/National Institutes of Health and the Animal Welfare Act. Mice were fed a high saturated fat (AIN-93G-based) diet containing 19.6% fat and 0.2% total cholesterol and obtaining 40.1% of Kcal from fat (4.4 Kcal/g) with or without 100 mg/kg of a racemic ABA mixture (Guri et al., J. Nutr. Biochem. 19:216-28, 2008). Systolic blood pressure was assessed on days 0, 28, 56, and 72. On day 84, fasted mice (12 h) were sacrificed by carbon dioxide asphyxiation and blood was withdrawn through cardiac puncture. Glucose concentrations of whole blood were assessed with an Accu-Chek® Glucometer (Roche, Indianapolis, Ind.) and plasma insulin was measured through insulin ELISA (Millipore, Billerica, Mass.). Aortas were collected for analysis of immune cell infiltration, histological evaluation of atherosclerotic lesions, and gene expression analyses.
Systolic blood pressure was measured with a computerized non-invasive tail-cuff system (CODA 2 mouse rat blood pressure system; Kent Scientific Corporation, Torrington, Conn.). Conscious animals were kept in a restrainer, with a standard acclimatization time of 10 min and gentle heating of the tail before every recording session. Fifteen recordings, which were preceded by five acclimitization recordings, were performed on each animal during each timepoint.

ApoE-deficient mice [2] = assay: Histology analyses of the aorta (areas, thickness, lesion severity); assay type: in vivo
Experimental: (§1) FIG. 4 are photos and graphs showing aortas collected on day 84 of dietary intervention. Representative photomicrographs (100×) of aortic root specimens from (A) control and (B) ABA-fed mice. (C) Analysis of lumenal areas and (D) tunica media areas were performed with aortic cross-sections using Image Pro Plus software. (E) Aortic thickness was analyzed as a ratio of the intima to the media. Gene expression in the aorta of (F) endothelial nitric oxide synthase (eNOS) and (G) 15-lipoxygenase (15-LOX) were measured as a ratio to the house-keeping gene β-actin. Data were analyzed as a completely randomized design.
FIG. 5 are photos and graphs showing histological examination of aortic lesions. ApoE −/− mice were fed high fat diets created with or without abscisic acid (ABA, 100 mg/kg diet). After 84 days aortas were excised and lesions were analyzed histologically according to methods described by van Vlijmen et al[13]. Representative photomicrographs (100×) of a (A) mild and (B) severe lesion are depicted. (C) The total number of mild (categories 1-3) and severe (categories 4-5) lesions from control and ABA-fed mice are shown. (D) Lesional areas, as a percent of total lumen area, for control and ABA-fed mice were calculated from histological sections with Image Pro Plus software. Data are represented as mean±standard error.
The aortic root sections used for histological analyses were perfusion-fixed with paraformaldehyde. Samples of aortas were cut transversally, stained with hematoxylin and eosin, and analyzed histologically. Areas for the lumen, tunica media, and aortic lesions and the thicknesses of the tunica intima and media were assessed using Image Pro Plus 6.1 software (Media Cybernetics, Bethesda, Md.). For thickness analyses, eight different measurements from the intima and media were taken using previously described methods (Hazell et al., Free Radic. Biol. Med. 31:1254-62, 2001). For semiquantitative assessment of lesion severity, methods described by van Vlijmen et al were used (van Vlijmen et al., J. Clin. Invest. 93:1403-10, 1994). Briefly, lesions were classified into five categories (1) early fatty streak: per section up to 10 foam cells present in the intima, (2) regular fatty streak: more than 10 cells present in the intima, (3) mild plaque: extension of foam cells into the media and mild fibrosis of the media without significant loss in architecture, (4) moderate plaque: foam cells in media, fibrosis, cholesterol clefts, mineralization, and/or necrosis of the media, (5) severe plaque: as 4 but more extensive and deeper in the media. Scoring classifications were applied to 15 lesions from control and ABA-fed mice. Lesions falling in categories 1-3 were classified as mild and 4-5 as severe.

[3] = system: endothelial nitric oxide synthase (eNOS); assay: Aortic gene expression by real-time RT-PCR: eNOS; assay type: in vivo, mice; details: day 84, ratio to β-actin
Experimental: as §1
Total RNA was isolated from aortas using the RNA isolation Minikit (Qiagen) according to the manufacturer's instructions. Total RNA (1 μg) was used to generate a complementary DNA (cDNA) template using the iScript cDNA Synthesis Kit (Bio-Rad, Hercules, Calif.). […] Each gene amplicon was purified with the MiniElute PCR Purification Kit (Qiagen) and quantitated on an agarose gel by using a DNA mass ladder (Promega). […]
Complementary DNA (cDNA) concentrations for genes of interest were examined by real-time quantitative PCR using an iCycler IQ System and the iQ SYBR green supermix (Bio-Rad). […] Results are presented as a starting quantity of target cDNA (picograms) per microgram of total RNA. […]

eNOS = eNOS mRNA expression in HAECs by real time PCR; assay type: cell-based, human; details: 10 μM ABA, 24 hours, P<0.02
[4] = ABA 100 mg/kg diet, data not shown

CC1=CC(=O)CC(C)(C)C1(O)/C=C/C(C)=C\C(=O)O (racemic) [ABA, abscisic acid]
Diastolic blood pressure vs control-fed mice (ApoE-deficient mice [1]; [4]): no significant affect | Mean heart rate vs control-fed mice (ApoE-deficient mice [1]; [4]): no significant affect | Systolic blood pressure vs control-fed mice (ApoE-deficient mice [1]; day 56, ABA 100 mg/kg diet): significantly reduced | Systolic blood pressure vs control-fed mice (ApoE-deficient mice [1]; day 72, ABA 100 mg/kg diet): significantly reduced | Lesion area as a percent of total lumenal area vs control (ApoE-deficient mice [2]; day 84): significantly decreased | Aortic luminal area vs control (ApoE-deficient mice [2]; day 84, aortic cross-sections): no significant differences | Aortic tunica media area vs control (ApoE-deficient mice [2]; day 84, aortic cross-sections): no significant differences | Intima to media ratio vs control (ApoE-deficient mice [2]; day 84, aortic root): significantly lower | Number of mild lesions (categories 1-3) (ApoE-deficient mice [2]; of 15 lesions scored, day 84): 10 | Number of severe lesions (categories 4-5) (ApoE-deficient mice [2]; of 15 lesions scored, day 84, control-fed mice 8 of 15): 5 | Aortic expression of eNOS mRNA vs control [3]: significantly elevated | eNOS mRNA levels vs vehicle (eNOS): significantly (P<0.02) increased
